Experimental findings from ChEMBL document CHEMBL1140010, “Discovery of novel prostaglandin analogs of PGE2 as potent and selective EP2 and EP4 receptor agonists” (Bioorg Med Chem Lett, 2007) are described below.

Data set [1] deals with T1, Prostaglandin E2 receptor EP4 subtype (Homo sapiens, UniProt P35408). Kind of data set: Displacement of [3H]PGE2 from human EP4 receptor expressed in HEK293 cells. It is filed as cell-based.
Data set [2] concerns the target T2, Prostaglandin E2 receptor EP2 subtype (Homo sapiens, UniProt P43116). As to the kind of experiment: Displacement of [3H]PGE2 from human EP2 receptor expressed in HEK293 cells. It is filed as cell-based.
Data set [3] has as its target T2, Prostaglandin E2 receptor EP2 subtype. Kind of data set: Agonist activity at EP2 receptor expressed in HEK293 cells assessed as cAMP accumulation. It is filed as functional, cell-based.
Data set [4] deals with T1, Prostaglandin E2 receptor EP4 subtype. Kind of data set: Agonist activity at EP4 receptor expressed in HEK293 cells assessed as cAMP accumulation. It is filed as functional, cell-based.
For the next data set, the system named is Mus musculus. As to the kind of experiment: Induction of ovulation in orally dosed CD1 mouse. It is filed as functional. The settings on record: CD1, po.
For data set [5], the target named is T3, Prostaglandin E2 receptor EP1 subtype (Homo sapiens, UniProt P34995).
T3 sequence (P34995 whole entry): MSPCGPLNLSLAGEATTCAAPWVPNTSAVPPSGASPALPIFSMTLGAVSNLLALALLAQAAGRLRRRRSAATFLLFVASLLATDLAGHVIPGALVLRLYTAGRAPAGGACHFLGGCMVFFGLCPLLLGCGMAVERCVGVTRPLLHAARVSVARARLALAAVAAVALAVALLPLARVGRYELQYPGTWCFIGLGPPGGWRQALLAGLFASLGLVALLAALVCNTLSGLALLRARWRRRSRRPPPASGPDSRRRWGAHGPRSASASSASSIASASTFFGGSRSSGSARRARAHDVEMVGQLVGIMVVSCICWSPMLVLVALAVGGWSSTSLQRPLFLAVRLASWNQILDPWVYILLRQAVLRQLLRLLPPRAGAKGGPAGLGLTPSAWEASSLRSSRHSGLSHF
Kind of data set: Displacement of [3H]PGE2 from human EP1 receptor expressed in HEK293 cells. It is filed as cell-based.

The target of data set [6] is T4, Prostaglandin E2 receptor EP3 subtype (Homo sapiens, UniProt P43115).
T4 sequence (P43115 whole entry): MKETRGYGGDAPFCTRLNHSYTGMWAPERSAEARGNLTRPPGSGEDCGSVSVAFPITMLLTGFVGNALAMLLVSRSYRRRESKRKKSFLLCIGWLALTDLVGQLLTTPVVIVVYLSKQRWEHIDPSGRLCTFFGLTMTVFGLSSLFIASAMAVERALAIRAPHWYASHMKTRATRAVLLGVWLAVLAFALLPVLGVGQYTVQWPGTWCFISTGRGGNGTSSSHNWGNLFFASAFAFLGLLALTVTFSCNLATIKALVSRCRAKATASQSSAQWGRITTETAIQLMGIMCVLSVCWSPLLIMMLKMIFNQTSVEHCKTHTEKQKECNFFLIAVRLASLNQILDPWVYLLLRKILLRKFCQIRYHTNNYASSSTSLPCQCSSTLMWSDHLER
As to the kind of experiment: Displacement of [3H]PGE2 from human EP3 receptor expressed in HEK293 cells. It is filed as cell-based.

A short description of data set [7]: Bioavailability in rat at 1 mg/kg. It is filed as ADME, organism-based. The following applies: in vivo.
Data set [8] is described as follows: Half life in rat. It is filed as ADME, organism-based. The settings on record: in vivo.
Data set [9] in a line: Clearance in iv dosed rat. It is filed as ADME, organism-based. The settings on record: in vivo.

T1 sequence (P35408 whole entry): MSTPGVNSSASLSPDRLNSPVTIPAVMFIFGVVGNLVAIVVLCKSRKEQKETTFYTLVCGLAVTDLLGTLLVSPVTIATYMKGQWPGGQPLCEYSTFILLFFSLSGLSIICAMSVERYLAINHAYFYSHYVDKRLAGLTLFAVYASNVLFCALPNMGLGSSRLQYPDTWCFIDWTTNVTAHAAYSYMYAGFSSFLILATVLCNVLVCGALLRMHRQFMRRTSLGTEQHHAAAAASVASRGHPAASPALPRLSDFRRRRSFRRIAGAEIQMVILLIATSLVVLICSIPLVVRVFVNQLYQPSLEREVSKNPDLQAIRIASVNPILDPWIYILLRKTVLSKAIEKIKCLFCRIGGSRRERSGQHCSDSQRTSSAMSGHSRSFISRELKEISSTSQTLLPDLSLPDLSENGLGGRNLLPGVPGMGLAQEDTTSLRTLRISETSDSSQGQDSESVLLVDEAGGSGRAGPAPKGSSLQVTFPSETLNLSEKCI
T2 sequence (P43116 whole entry): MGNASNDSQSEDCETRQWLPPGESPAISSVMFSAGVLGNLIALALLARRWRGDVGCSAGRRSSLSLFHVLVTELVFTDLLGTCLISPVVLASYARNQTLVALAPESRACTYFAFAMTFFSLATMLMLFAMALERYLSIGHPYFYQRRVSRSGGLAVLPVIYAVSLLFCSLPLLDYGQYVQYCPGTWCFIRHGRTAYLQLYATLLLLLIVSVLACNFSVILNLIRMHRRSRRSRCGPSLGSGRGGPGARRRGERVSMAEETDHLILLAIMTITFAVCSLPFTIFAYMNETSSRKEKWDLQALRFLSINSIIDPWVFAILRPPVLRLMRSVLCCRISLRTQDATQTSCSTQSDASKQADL

As for `C/C(=C/C=C/[C@H]1CCC(=O)N1CCc1ccc(C(=O)O)cc1)CC1CCCC1`, the values for the Ki in data set [1] and in data set [2] were 117 nM and 60 nM, respectively.
For `CCCC/C=C\C=C\[C@H]1CCC(=O)N1CCc1ccc(C(=O)O)cc1`, the Ki worked out at 25 nM in data set [1] and 88 nM in [2]. In addition, the EC50 in data set [3] is 197 nM; in data set [4], 2 nM.
In [2], `CCCC/C=C(C)/C=C/[C@H]1CCC(=O)N1CCc1ccc(C(=O)O)cc1` registered an inhibition constant Ki of 29 nM.
The compound `CCCC/C(C)=C\C=C\[C@H]1CCC(=O)N1CCc1ccc(C(=O)O)cc1` had an ED50 in the data set with Mus musculus of 1 mg/kg. Moreover, the Ki in data set [1] worked out at 4 nM; in data set [5], 10000 nM; in data set [6], 10000 nM; in [2] it was 60 nM. Besides, the bioavailability in [7] stood at 72.6%. Moreover, the half-life in [8] is 7.7 h. Besides, the concentration for a half-maximal effect (EC50) in data set [3] turned out to be 35 nM; in data set [4], 0.1 nM. For the same compound, the clearance in [9] is 2.5 mL/min/kg.
As to `C/C(=C\C=C\[C@H]1CCC(=O)N1CCc1ccc(C(=O)O)cc1)c1ccccc1`, the Ki in [1] was found to be 29 nM; in data set [2], 749 nM. Besides, the EC50 in data set [3] is above 10000 nM; in [4], 0.5 nM.
`CC/C(C)=C\C=C\[C@H]1CCC(=O)N1CCc1ccc(C(=O)O)cc1`: the Ki in data set [1] came out at 24 nM; in [2] it was 173 nM. The concentration for a half-maximal effect (EC50) in data set [4] worked out at 3 nM.
Regarding `CC(C)=C/C=C/[C@H]1CCC(=O)N1CCc1ccc(C(=O)O)cc1`, the inhibitory constant (Ki) in data set [1] was found to be 45 nM; in [2], 1850 nM. Moreover, in data set [4], the EC50 came to 4 nM.
With `CCCC/C(C)=C/C=C/[C@H]1CCC(=O)N1CCc1ccc(C(=O)O)cc1`, the Ki came out at 181 nM in [1], 10000 nM in data set [5], 10000 nM in data set [6] and 134 nM in [2]. Also, the EC50 in data set [3] was found to be 222 nM; in [4], 15 nM.
As to `CCCC[C@H](O)/C=C/[C@H]1CCC(=O)N1CCc1ccc(C(=O)O)cc1`, the Ki was 2.5 nM in data set [1], above 10000 nM in data set [5], 9000 nM in [6] and 126 nM in data set [2]. Also, the EC50 is 16 nM in [3] and 0.002 nM in data set [4].
Consider `CCCC/C=C(C)/C=C\[C@H]1CCC(=O)N1CCc1ccc(C(=O)O)cc1`, for which the Ki in [1] is 443 nM; in data set [2], 802 nM.
